In patent US9096549B2, “Selective HDAC3 inhibitors” (Acetylon Pharmaceuticals, Inc., priority 2013, dated 2015):

Tests used:
Assay type in all cases: biochemical
Conditions in all cases: 24 hours pre-incubation with enzyme; tripeptide substrate 3 at Km
HDAC1 = HDAC1 (Homo sapiens (Human), UniProt Q13547); assay: HDAC enzyme assay, HDAC1
Method: (§1) Compounds for testing were diluted in DMSO to 50 fold the final concentration and a ten point three fold dilution series was made. The compounds were diluted in assay buffer (50 mM HEPES, pH 7.4, 100 mM KCl, 0.001% Tween-20, 0.05% BSA, […] tris(2-carboxyethyl)phosphine) to 6 fold their final concentration. The HDAC enzymes (purchased from BPS Biosciences) were diluted to 1.5 fold their final concentration in assay buffer and pre-incubated with the compounds for 24 hours prior to addition of the substrate.
(§2) The substrate tripeptide substrate 3 (synthesized in house) for each enzyme was equal to the Km as determined by a substrate titration curve. The substrates were diluted in assay buffer at 6× their final concentration with 0.3 μM sequencing grade trypsin (Sigma). The substrate/trypsin mix was added to the enzyme/compound mix, the plate was shaken for 60 seconds and placed into a Spectramax M5 microtiter plate reader. The development of fluorescence was monitored for 30 min. and the linear rate of the reaction was calculated. The IC50 was determined using Graph Pad Prism by a four parameter curve fit. The IC50 values obtained for the compounds of this invention are found in Table 1.

HDAC3 = HDAC3 (Homo sapiens (Human), UniProt O15379); assay: HDAC enzyme assay, HDAC3
Chain of HDAC3 (O15379 whole entry): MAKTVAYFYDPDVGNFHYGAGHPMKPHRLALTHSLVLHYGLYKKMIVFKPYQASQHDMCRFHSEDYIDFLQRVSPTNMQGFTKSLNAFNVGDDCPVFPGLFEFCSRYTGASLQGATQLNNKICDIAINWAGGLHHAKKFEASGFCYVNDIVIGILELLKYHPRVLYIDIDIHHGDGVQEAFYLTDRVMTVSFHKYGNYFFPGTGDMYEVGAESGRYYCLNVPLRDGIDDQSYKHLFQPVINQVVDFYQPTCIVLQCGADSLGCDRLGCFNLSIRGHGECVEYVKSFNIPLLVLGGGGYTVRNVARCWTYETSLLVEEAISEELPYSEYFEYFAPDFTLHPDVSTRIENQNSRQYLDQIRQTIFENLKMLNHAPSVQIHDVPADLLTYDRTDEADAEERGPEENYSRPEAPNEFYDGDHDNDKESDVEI
Chain of HDAC3 (Q9Y618 395-489 partner): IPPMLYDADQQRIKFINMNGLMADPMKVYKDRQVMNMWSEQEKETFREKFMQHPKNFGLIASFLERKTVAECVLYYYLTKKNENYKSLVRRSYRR
Method: as §1, §2

HDAC2 = HDAC2 (Homo sapiens (Human), UniProt Q92769); assay: HDAC enzyme assay, HDAC2
Chain of HDAC2 (Q92769 whole entry): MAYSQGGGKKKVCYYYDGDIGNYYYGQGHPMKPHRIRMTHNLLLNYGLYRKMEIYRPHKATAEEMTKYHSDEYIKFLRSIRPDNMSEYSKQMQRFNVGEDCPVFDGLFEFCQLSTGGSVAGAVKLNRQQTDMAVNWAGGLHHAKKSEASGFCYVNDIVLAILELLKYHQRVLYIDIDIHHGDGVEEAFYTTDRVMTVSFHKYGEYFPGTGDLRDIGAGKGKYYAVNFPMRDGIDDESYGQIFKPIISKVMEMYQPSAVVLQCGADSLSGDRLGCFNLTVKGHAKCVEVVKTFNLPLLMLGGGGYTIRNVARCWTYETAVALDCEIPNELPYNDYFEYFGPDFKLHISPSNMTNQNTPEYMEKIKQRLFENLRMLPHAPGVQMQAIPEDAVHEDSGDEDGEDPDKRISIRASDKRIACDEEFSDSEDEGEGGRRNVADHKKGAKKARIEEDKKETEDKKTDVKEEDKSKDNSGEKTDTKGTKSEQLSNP
Method: as §1, §2

Chain of HDAC1 (Q13547 whole entry): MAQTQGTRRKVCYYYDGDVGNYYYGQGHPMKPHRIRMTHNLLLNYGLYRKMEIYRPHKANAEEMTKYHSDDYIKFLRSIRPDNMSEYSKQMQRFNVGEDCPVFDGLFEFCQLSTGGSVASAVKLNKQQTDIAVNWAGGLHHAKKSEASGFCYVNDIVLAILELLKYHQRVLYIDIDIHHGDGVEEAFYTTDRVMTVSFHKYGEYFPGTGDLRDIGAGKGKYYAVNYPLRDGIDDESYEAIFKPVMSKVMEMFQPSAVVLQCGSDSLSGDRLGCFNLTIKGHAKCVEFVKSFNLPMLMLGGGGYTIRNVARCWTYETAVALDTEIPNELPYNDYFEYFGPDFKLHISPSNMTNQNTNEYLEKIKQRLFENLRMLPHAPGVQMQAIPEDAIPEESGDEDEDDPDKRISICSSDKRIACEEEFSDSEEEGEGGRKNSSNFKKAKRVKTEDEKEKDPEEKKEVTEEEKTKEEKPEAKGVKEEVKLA

SMILES	IC50 (HDAC1) [nM]	IC50 (HDAC3) [nM]	IC50 (HDAC2) [nM]	IC50 (nM) HDAC1 (HDAC1)	IC50 (nM) HDAC2 (HDAC2)
Nc1ccccc1NC(=O)c1cnc2c(C3CC3)c(N3CCNCC3)ccc2c1 [Compound B]	355	53	372		
Nc1cc(F)ccc1NC(=O)c1ccc2c(c1)CC(=O)N2 [Compound C]		269	> 2000	No inhibition	
Nc1cc(F)ccc1NC(=O)c1ccc2[nH]cnc2c1 [Compound D]		282	> 2000	No inhibition	
CN1CCN(c2ccc3cc(C(=O)Nc4ccc(F)cc4N)cnc3c2C2CC2)CC1 [Compound E]	1610	68	805		
Nc1cc(F)ccc1NC(=O)c1cnc2c(ccn2CCN2CCOCC2)c1 [Compound G]	> 2000	193	1530		
Nc1cc(F)ccc1NC(=O)c1ccc2c(cnn2CCN2CCOCC2)c1 [Compound H]	> 2000	320	1780		
Nc1cc(F)ccc1NC(=O)c1cnc2c(C3CC3)c(N3CCNCC3)ccc2c1 [Compound I]	> 2000	57	589		
Nc1ccccc1NC(=O)c1cc2ccc(N3CCNCC3)cc2cn1 [Compound K, N-(2-aminophenyl)-7-(piperazin-1-yl)isoquinoline-3-carboxamide]	299	38	271		
Nc1ccccc1NC(=O)c1cc2ccc(N3CCNCC3)c(C3CC3)c2cn1 [Compound L]	228	33	212		
Nc1cc(F)ccc1NC(=O)c1cc2ccc(N3CCNCC3)c(C3CC3)c2cn1 [Compound M]	462	30	228		
Nc1cc(F)ccc1NC(=O)c1cnc2cc(N3CCNCC3)ccc2n1 [Compound N]		1300		No inhibition	No inhibition

More lines, now with the values ahead:

IC50 (HDAC1) [nM]	IC50 (HDAC3) [nM]	IC50 (HDAC2) [nM]	IC50 (nM) HDAC1 (HDAC1)	IC50 (nM) HDAC2 (HDAC2)	SMILES
468	59	455			Nc1ccc(F)cc1NC(=O)c1cnc2c(C3CC3)c(N3CCNCC3)ccc2c1 [Compound A]
	470	> 2000	No inhibition		Nc1cc(F)ccc1NC(=O)c1cnc2cc(N3CCNCC3)ccc2c1 [Compound J]
> 2000	675	> 2000			Nc1ccc(F)cc1NC(=O)c1cnc2cc(N3CCNCC3)ccc2n1 [Compound O]
> 2000	235	1100			Nc1ccc(F)cc1NC(=O)c1ccc2nc(N3CCNCC3)cnc2c1 [Compound P]
> 2000	308	> 2000			Nc1ccc(F)cc1NC(=O)c1cnc2cc(N3CCNCC3)ccc2c1 [Compound Q, N-(2-amino-5-fluorophenyl)-7-(piperazin-1-yl)quinoline-3-carboxamide]
> 2000	315	1340			Nc1ccc(F)cc1NC(=O)c1ccc2nc(N3CCNCC3)ccc2c1 [Compound R]
